Drawing on PubChem BioAssay AID652187 (Sanford-Burnham Center for Chemical Genomics, 2013), this text covers IC50 for 28 compounds.

Calls of active or inactive are those of the source.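 The calls were made as follows: active = IC50 of 25 µM or lower, counted as toxic to worms; inactive = the rest.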

A word on the IC50: it is the concentration that gives 50% inhibition.

In this series the test system is C. elegans VP596 worms, composite health score, 20-22 h. Kind of series: nematode cytotoxicity of SKN-1 inhibitor analogs – whole organism, strain VP596, composite health score, round 1, cytotoxicity control for SKN-1 inhibitor project, SAR follow-up (AID 652187).
With `Clc1ccc(-c2csc(-c3ccncc3)n2)cc1`, the IC50 was < 64 µM (inactive).
Under `COc1ccc(-c2csc(-c3cccnc3)n2)cc1` stands > 64 µM (inactive); under `CCOc1cc(CNCc2ccccc2)cc(Cl)c1OCc1ccc(F)cc1`, > 64 µM (inactive).
With `Fc1ccc(-c2csc(-c3ccncc3)n2)cc1` the figure was > 64 µM (inactive).
With `c1ccc(-c2csc(-c3ccncc3)n2)cc1` the figure was > 64 µM (inactive).
For the compound `CCOc1cc(CNC2CCCC2)cc(Cl)c1OCc1ccc(OC)cc1`, the IC50 was > 64 µM (inactive).
As for `Clc1ccc(-c2csc(-c3cccnc3)n2)cc1`, the IC50 is > 64 µM (inactive).
Under `CCOc1cc(CNC(C)C)cc(Cl)c1OCc1ccc(F)cc1` stands > 64 µM (inactive); under `CCOc1cc(CNC2CCCC2)cc(Cl)c1OCc1cccc(F)c1`, > 64 µM (inactive).
Under `Fc1ccc(COc2ccc(CNC3CCCC3)cc2Cl)cc1` stands > 64 µM (inactive); under `CCOc1cc(CNC2CCC2)cc(Cl)c1OCc1ccc(F)cc1`, > 64 µM (inactive); under `CCOc1cc(C(=O)NC2CCCC2)cc(Cl)c1OCc1ccc(F)cc1`, > 64 µM (inactive).
Under `CCOc1cc(CNc2ccccc2)cc(Cl)c1OCc1ccc(F)cc1` stands > 64 µM (inactive); under `CCOc1cc(CNC2CCCC2)cc(Cl)c1OCc1ccccc1F`, > 64 µM (inactive); under `CCOc1cc(CNC2CCCC2)cc(Cl)c1OCc1ccc(C)cc1`, > 64 µM (inactive).
As for `CCOc1cc(CNC2CCCC2)cc(Cl)c1OCc1ccc(Cl)cc1`, the IC50 is > 64 µM (inactive).
With `CCOc1cc(CNC2CCCC2)cc(Cl)c1OCc1ccc(F)cc1`, the IC50 is > 64 µM (inactive).
With `CCOc1cc(CNC2CCCC2)ccc1OCc1ccc(F)cc1` the figure was > 64 µM (inactive).
With `COc1cc(CNC2CCCC2)cc(Cl)c1OCc1ccc(F)cc1` the figure was > 64 µM (inactive); with `CCOc1cc(CNC2CC2)cc(Cl)c1OCc1ccc(F)cc1`, > 64 µM (inactive); with `COc1ccc(-c2csc(-c3ccncc3)n2)cc1`, > 64 µM (inactive).
Under `CCOc1cc(CNC2CCCC2)cc(Cl)c1OC` stands > 64 µM (inactive); under `Cc1ccc(-c2csc(-c3ccncc3)n2)cc1`, > 64 µM (inactive); under `Cc1ccc(-c2csc(-c3cccnc3)n2)cc1`, 61.1 µM (inactive).
Turning to `c1ccc(-c2csc(-c3cccnc3)n2)cc1`, the IC50 was 63.3 µM (inactive).
With `CCOc1cc(CNC2CCCC2)cc(Cl)c1OCc1ccccc1Cl` the figure was > 64 µM (inactive); with `Fc1ccc(-c2csc(-c3cccnc3)n2)cc1`, > 64 µM (inactive); with `CCOc1cc(CNC2CCCCC2)cc(Cl)c1OCc1ccc(F)cc1`, > 64 µM (inactive).
